# Measured values as given in patent US20020055702A1, “ULTRASOUND-MEDIATED DRUG DELIVERY” (priority 1998, published 2002).
# “Also recorded” adds a separate entry of the source.
# System: corpus cavernosum
# Experiment: Intracorporal (cavernosal) pressure in anesthetized male dogs after topical papaverine gel with or without ultrasound
# Type: in vivo, dog
# From the text: The invention has reduced to practice and the principles of the invention have been proven by animal experiments. In these experiments, male dogs, one year old, were anesthetized and a midline abdominal incision was made from the xyphoid process down to the symphisis pubis. Proceeding slightly lateral to the left side of the penis, the corpus cavernosum was exposed. Two butterfly needles were placed into one of the corpus cavernosum, one proximally and one distally. The proximal needle was used for intracorporal pressure recordings, while saline was infused through the distal needle. Controlled intracorporal blood pressure (without applying any drugs) was monitored and recorded while saline was perfused at a rate of 1.7 ml/min. Nude mice skin was used to cover the exposed corpora by stitching it to the dog's incised skin. A gel containing 500 mg papaverine (in a base of polyethylene glycol, methyl paraben, butyl paraben, and butylated hydroxytoluene) was applied on the surface of the nude mice skin followed by the application of an ultrasound probe of 1 MHz, pulse mode 30%, at a power level of 2 w/cm^2, for 20 min. In the control experiments, papaverine was applied topically without any ultrasound application and the manometric pressure was monitored. The resulting manometric pressure was compared to the control pressure by measuring the time needed to reach the peak pressure and the time needed for the cavernosal pressure to decline to baseline.
# Perfusion of the corpora with saline (with no ultrasound or papaverine application) was performed for 15 sec at a rate of 1.7 ml/min. creating a pressure ranging from 150-220 cm. H2O. The time needed for this pressure to drop to baseline (0-5) was 30 sec. Perfusion of the corpora with saline after applying ultrasound and papaverine reached the same pressure peak in only 5 sec. Moreover, the pressure declined to baseline in 1.5 minutes.
# [1] = papaverine gel plus ultrasound versus baseline (saline only)
smiles,measurement,setting,value
COc1ccc(Cc2nccc3cc(OC)c(OC)cc23)cc1OC [papaverine],time needed to reach the peak pressure,"gel with 500 mg papaverine on nude mice skin over corpora, ultrasound 1 MHz, pulse mode 30%, 2 w/cm^2, 20 min, saline perfusion 1.7 ml/min",5 s
same,time needed for the cavernosal pressure to decline to baseline,"gel with 500 mg papaverine plus ultrasound 1 MHz, pulse mode 30%, 2 w/cm^2, 20 min, saline perfusion 1.7 ml/min",1.5 min
same,manometric pressure result compared to saline-only control,"papaverine gel on the skin for 20 min, no ultrasound",same results as in the control experiments; also recorded: no greater pressure readings than the no-drug control
same,manometric pressure result with ultrasound,papaverine gel plus ultrasound treatment,rise in pressure which was consistent with erection
same,improvement in the period of time established as a baseline for the establishment of erection,[1],300%
same,persistence of effects relative to the baseline erection parameters,[1],500%
